Where two headings read alike, the source gives them in different places.
Columns and labels:
[1] = system: Microbial Deaminase (strained rumen fluid); assay: In vitro microbial deaminase inhibition (rumen fluid, alfalfa hay, grain mixture; 4 hours); type: cell-based; conditions: for MDI (%): 240 min
Protocol: (§1) The in vitro fermentation system contained 75 ml. strained rumen fluid, 200 mg, alfalfa hay, 800 mg. of a crude protein grain mixture, 0.8 to 1.6 mM of each of 10 essential amino acids (threonine, valine, methionine, isoleucine, leucine, phelylalanine, tryptophan, lysine and arginine), and 0 to 50 ppm dithiooxamide. Flasks were incubated for 4 hours with effects upon amino acid deamination assessed as described for the previous system. Using standard chromatographic techniques, effects upon methanogenesis and upon the pattern of volatile fatty acid production were determined.
(§2) ^1 In vitro fermentation system contained 75 ml. strained rumen fluid
(§3) 200 mg. alfalfa hay, 800 mg. grain mixture (16% crude protein) and 1.6 mM
(§4) of each of ten essential amino acids. Flasks were incubated for four
(§5) 200 mg. alfalfa hay, 800 mg. grain mixture (16% crude protein) and 0.8 mM

[2] = system: methanogenesis (strained rumen fluid); assay: In vitro effects upon methanogenesis; type: cell-based
Protocol: as §1, §2, §3, §4, §5

[3] = system: volatile fatty acid production (strained rumen fluid); assay: In vitro volatile fatty acid production; type: cell-based
Protocol: as §1, §2, §3, §4, §5

[4] = system: gas production (strained rumen fluid); assay: In vitro gas production; type: cell-based; conditions: Table III, control 65
Protocol: as §1, §2, §5, §4

[5] = system: rumen microbial deamination; assay: In vivo effects upon amino acid deamination in rumen fistulated cattle; conditions: for Quantity of amino acids in the rumen: per rumen
Protocol: Rumen fistulated cattle were fed a pelleted 60% concentrate diet. To conduct the test, animals received ruminal doses of a mixture of free amino acids to provide 338 mMoles of total free amino acids (threonine 4.5 g., methionine 6.0 g., isoleucine 5.0 g., leucine 5.0 g., phenylalanine 6.5 g., lysine 7.5 g., histidine 8.5 g.), 50 g. of a soluble rumen marker, polyethylene glycol (PEG) and 0 to 4 g. dithiooxamide. Total amino acid concentration was determined by the procedure of Borchers [Anal. Chem., 31 (7): 1179]. Activity was assessed as changes, with respect to time, of the quantity of total free amino acids in the rumen. Inhibition of rumen microbial deamination results in a greater quantity of free amino acids in the rumen.
^1 Polyethylene glycol was used as a marker to estimate rumen volume
and correct for changes in amino acid concentration due to changes in
rumen volume during the six hour experiment.
^2 mMoles of amino acid per rumen.

methanogenesis = assay: In vivo effects upon methanogenesis in cattle; conditions: for Methane Inhibition: 360 kg cattle, at least 7 days
Text: Cattle were fed 5 to 7 kg./day of a 70% concentrate ration which was medicated to supply 0 to 2 g. of dithiooxamide per animal daily. After feeding medicated rations for at least 7 days, gas samples were obtained by rumen puncture for chromatographic assay of methane.
^1 360 Kg. Cattle fed either 5, 6 or 7 kg./day.

animals = assay: Toxicity statement (animals); conditions: when used as described
[6] = Table III, varying concentrations of cobalt and copper

Work on NC(=S)C(N)=S [Dithiooxamide, dithiooxamide] yielded an inhibition at 5 ppm ([1]; 4 h, Table II, 5 ppm dithiooxamide, 4 h, read-out: MDI (%)) of 6%, an inhibition at 10 ppm ([1]; 4 h, Table II, 10 ppm dithiooxamide, 4 h, read-out: MDI (%)) of 68% and an inhibition at 25 ppm ([1]; 4 h, Table II, 25 ppm dithiooxamide, 4 h, read-out: MDI (%)) of 65%. The inhibition at 50 ppm ([1]; 4 h, Table II, 50 ppm dithiooxamide, 4 h, read-out: MDI (%)) was 94%, the inhibition at 25 ppm ([1]; 4 h, Table III, dithiooxamide 25 ppm, no added cobalt or copper, read-out: MDI (%)) was 78% and the “inhibition of microbial deamination of amino acids (in words)” value ([1]; Table II) was “effective inhibitor of microbial deamination of amino acids”. The “MDI (%)” value ([1]; Table III, dithiooxamide 25 ppm + cobalt sulfate .013 ppm) was 81%, the “MDI (%)” value ([1]; Table III, dithiooxamide 25 ppm + copper sulfate .333 ppm) was 90% and the “Deaminase inhibition on adding cobalt and copper (in words)” value [1, 6] was “not affected by adding varying concentrations of cobalt and copper”. The “methane production (in words)” value ([2]; Table II) was “would suppress methane production”, the inhibition at 5 ppm ([2]; Table II, 5 ppm dithiooxamide, 4 h, read-out: Methane Inhibition (%)) was 12% and the inhibition at 10 ppm ([2]; Table II, 10 ppm dithiooxamide, 4 h, read-out: Methane Inhibition (%)) was 88%. For the same molecule, the inhibition at 25 ppm ([2]; Table II, 25 ppm dithiooxamide, 4 h, read-out: Methane Inhibition (%)) was 96%, the inhibition at 50 ppm ([2]; Table II, 50 ppm dithiooxamide, 4 h, read-out: Methane Inhibition (%)) was 99% and the “Methane Inhibition (%)” value ([2]; Table III, dithiooxamide 25 ppm + cobalt sulfate .066 ppm) was 93%. The inhibition at 25 ppm ([2]; Table III, dithiooxamide 25 ppm, no added cobalt or copper, read-out: Methane Inhibition (%)) was 92%, the “methane inhibition on adding cobalt and copper (in words)” value [2, 6] was “not affected by adding varying concentrations of cobalt and copper” and the “pattern of volatile fatty acids (in words)” value ([3]; Table II) was “increased molar percentages of propionate and butyrate at the expense of acetate”. For the same molecule, the “volatile fatty acid carbon (in words)” value ([3]; Table II) was “slight decrease in volatile fatty acid carbon”, the “Volatile Fatty Acids (molar distribution, %): Propionate” value ([3]; Table II, 5 ppm dithiooxamide, 4 h, control 9) was 10% and the “Volatile Fatty Acids (molar distribution, %): Butyrate” value ([3]; Table II, 5 ppm dithiooxamide, 4 h, control 22) was 24%. The “Volatile Fatty Acids (molar distribution, %): Acetate” value ([3]; Table II, 5 ppm dithiooxamide, 4 h, control 69) was 66%, the “Volatile Fatty Acid Carbon” value ([3]; Table II, 5 ppm dithiooxamide, 4 h, control 128) was 127 μ moles/ml and the “Volatile Fatty Acids (molar distribution, %): Propionate” value ([3]; Table II, 10 ppm dithiooxamide, 4 h, control 9) was 15%. For the same molecule, the “Volatile Fatty Acids (molar distribution, %): Butyrate” value ([3]; Table II, 10 ppm dithiooxamide, 4 h, control 22) was 36%, the “Volatile Fatty Acids (molar distribution, %): Acetate” value ([3]; Table II, 10 ppm dithiooxamide, 4 h, control 69) was 49% and the “Volatile Fatty Acid Carbon” value ([3]; Table II, 10 ppm dithiooxamide, 4 h, control 128) was 108 μ moles/ml. The “Volatile Fatty Acids (molar distribution, %): Propionate” value ([3]; Table II, 25 ppm dithiooxamide, 4 h, control 9) was 15%, the “Volatile Fatty Acids (molar distribution, %): Butyrate” value ([3]; Table II, 25 ppm dithiooxamide, 4 h, control 22) was 36% and the “Volatile Fatty Acids (molar distribution, %): Acetate” value ([3]; Table II, 25 ppm dithiooxamide, 4 h, control 69) was 49%. The “Volatile Fatty Acid Carbon” value ([3]; Table II, 25 ppm dithiooxamide, 4 h, control 128) was 108 μ moles/ml, the “Volatile Fatty Acids (molar distribution, %): Propionate” value ([3]; Table II, 50 ppm dithiooxamide, 4 h, control 9) was 15% and the “Volatile Fatty Acids (molar distribution, %): Butyrate” value ([3]; Table II, 50 ppm dithiooxamide, 4 h, control 22) was 38%. The “Volatile Fatty Acids (molar distribution, %): Acetate” value ([3]; Table II, 50 ppm dithiooxamide, 4 h, control 69) was 47%, the “Volatile Fatty Acid Carbon” value ([3]; Table II, 50 ppm dithiooxamide, 4 h, control 128) was 102 μ moles/ml and the “patterns of volatile fatty acid production (in words)” value ([3]; Table III) was “Alterations in patterns of volatile fatty acid production were again observed”. For the same molecule, the “total volatile fatty acid carbon production (in words)” value ([3]; Table III) was “no effects on total volatile fatty acid carbon production”, the “Volatile Fatty Acids (molar distribution, %): Propionate” value ([3]; Table III, dithiooxamide 25 ppm + cobalt sulfate .013 ppm, control 15) was 20% and the “Volatile Fatty Acids (molar distribution, %): Butyrate” value ([3]; Table III, dithiooxamide 25 ppm + cobalt sulfate .013 ppm, control 21) was 39%. For the same molecule, the “Volatile Fatty Acids (molar distribution, %): Acetate” value ([3]; Table III, dithiooxamide 25 ppm + cobalt sulfate .013 ppm, control 64) was 41%, the “Volatile Fatty Acid Carbon” value ([3]; Table III, dithiooxamide 25 ppm + cobalt sulfate .013 ppm, control 125) was 127 μ moles/ml and the “Volatile Fatty Acids (molar distribution, %): Propionate” value ([3]; Table III, dithiooxamide 25 ppm + cobalt sulfate .066 ppm, control 15) was 20%. For the same molecule, the “Volatile Fatty Acids (molar distribution, %): Butyrate” value ([3]; Table III, dithiooxamide 25 ppm + cobalt sulfate .066 ppm, control 21) was 37%, the “Volatile Fatty Acids (molar distribution, %): Acetate” value ([3]; Table III, dithiooxamide 25 ppm + cobalt sulfate .066 ppm, control 64) was 43% and the “Volatile Fatty Acid Carbon” value ([3]; Table III, dithiooxamide 25 ppm + cobalt sulfate .066 ppm, control 125) was 133 μ moles/ml. The “Volatile Fatty Acids (molar distribution, %): Propionate” value ([3]; Table III, dithiooxamide 25 ppm + copper sulfate .067 ppm, control 15) was 21%, the “Volatile Fatty Acids (molar distribution, %): Butyrate” value ([3]; Table III, dithiooxamide 25 ppm + copper sulfate .067 ppm, control 21) was 41% and the “Volatile Fatty Acids (molar distribution, %): Acetate” value ([3]; Table III, dithiooxamide 25 ppm + copper sulfate .067 ppm, control 64) was 38%. The “Volatile Fatty Acid Carbon” value ([3]; Table III, dithiooxamide 25 ppm + copper sulfate .067 ppm, control 125) was 114 μ moles/ml, the “Volatile Fatty Acids (molar distribution, %): Propionate” value ([3]; Table III, dithiooxamide 25 ppm + copper sulfate .333 ppm, control 15) was 21% and the “Volatile Fatty Acids (molar distribution, %): Butyrate” value ([3]; Table III, dithiooxamide 25 ppm + copper sulfate .333 ppm, control 21) was 38%. For the same molecule, the “Volatile Fatty Acids (molar distribution, %): Acetate” value ([3]; Table III, dithiooxamide 25 ppm + copper sulfate .333 ppm, control 64) was 41%, the “Volatile Fatty Acid Carbon” value ([3]; Table III, dithiooxamide 25 ppm + copper sulfate .333 ppm, control 125) was 132 μ moles/ml and the “Volatile Fatty Acids (molar distribution, %): Propionate” value ([3]; Table III, dithiooxamide 25 ppm, no added cobalt or copper, control 15) was 21%. For the same molecule, the “Volatile Fatty Acids (molar distribution, %): Butyrate” value ([3]; Table III, dithiooxamide 25 ppm, no added cobalt or copper, control 21) was 40%, the “Volatile Fatty Acids (molar distribution, %): Acetate” value ([3]; Table III, dithiooxamide 25 ppm, no added cobalt or copper, control 64) was 39% and the “Volatile Fatty Acid Carbon” value ([3]; Table III, dithiooxamide 25 ppm, no added cobalt or copper, control 125) was 119 μ moles/ml. The “Gas Production” value ([4]; dithiooxamide 25 ppm + cobalt sulfate .013 ppm) was 82 cc, the “Gas Production” value ([4]; dithiooxamide 25 ppm + cobalt sulfate .066 ppm) was 86 cc and the “Gas Production” value ([4]; dithiooxamide 25 ppm + copper sulfate .067 ppm) was 85 cc. The “Gas Production” value ([4]; dithiooxamide 25 ppm + copper sulfate .333 ppm) was 83 cc, the “Gas Production” value ([4]; dithiooxamide 25 ppm, no added cobalt or copper) was 85 cc and the “Quantity of amino acids in the rumen” value ([5]; 0.5 g dithiooxamide ruminal dose, 0 h after dosing, control 338) was 338 mmol. The “Quantity of amino acids in the rumen” value ([5]; 0.5 g dithiooxamide ruminal dose, 3 h after dosing, control 152) was 192 mmol, the “Quantity of amino acids in the rumen” value ([5]; 0.5 g dithiooxamide ruminal dose, 6 h after dosing, control 47) was 78 mmol and the “Quantity of amino acids in the rumen” value ([5]; 1.0 g dithiooxamide ruminal dose, 0 h after dosing, control 338) was 338 mmol. For the same molecule, the “Quantity of amino acids in the rumen” value ([5]; 1.0 g dithiooxamide ruminal dose, 3 h after dosing, control 152) was 198 mmol, the “Quantity of amino acids in the rumen” value ([5]; 1.0 g dithiooxamide ruminal dose, 6 h after dosing, control 47) was 162 mmol and the “Quantity of amino acids in the rumen” value ([5]; 2.0 g dithiooxamide ruminal dose, 0 h after dosing, control 338) was 338 mmol. The “Quantity of amino acids in the rumen” value ([5]; 2.0 g dithiooxamide ruminal dose, 3 h after dosing, control 152) was 209 mmol, the “Quantity of amino acids in the rumen” value ([5]; 2.0 g dithiooxamide ruminal dose, 6 h after dosing, control 47) was 218 mmol and the “Quantity of amino acids in the rumen” value ([5]; 4.0 g dithiooxamide ruminal dose, 0 h after dosing, control 338) was 338 mmol. The “Quantity of amino acids in the rumen” value ([5]; 4.0 g dithiooxamide ruminal dose, 3 h after dosing, control 152) was 270 mmol, the “Quantity of amino acids in the rumen” value ([5]; 4.0 g dithiooxamide ruminal dose, 6 h after dosing, control 47) was 308 mmol and the “prevention of degradation of free amino acids in the rumen (in words)” value ([5]; Table IV) was “effective agent in preventing his degradation and increasing the size of the pool of amino acids in the rumen”. For the same molecule, the “Methane Inhibition” value (methanogenesis; 1.0 g./day dithiooxamide in feed) was 51, the “Methane Inhibition” value (methanogenesis; 2.0 g./day dithiooxamide in feed) was 85 and the “Methane Inhibition” value (methanogenesis; .5 g./day dithiooxamide in feed) was 25. For the same molecule, the “antimethanogenic activity (in words)” value (methanogenesis; Table V) was “verified the antimethanogenic activity” and the “toxicity (in words)” value (animals) was “relatively nontoxic”.

From patent US3949090A, “Methods and compositions for improving feed efficiency in ruminants using dithiooxamide” (SmithKline Corporation, priority 1974, dated 1976)
